In ChEMBL document CHEMBL1149526, “Synthesis and SAR of selective benzothiophene, benzofuran, and indole-based peroxisome proliferator-activated receptor delta agonists” (Bioorg Med Chem Lett, 2007):

Columns and labels:
[1] = molecular target: T1, Peroxisome proliferator-activated receptor alpha (Homo sapiens, UniProt Q07869)
T1 sequence (Q07869 whole entry): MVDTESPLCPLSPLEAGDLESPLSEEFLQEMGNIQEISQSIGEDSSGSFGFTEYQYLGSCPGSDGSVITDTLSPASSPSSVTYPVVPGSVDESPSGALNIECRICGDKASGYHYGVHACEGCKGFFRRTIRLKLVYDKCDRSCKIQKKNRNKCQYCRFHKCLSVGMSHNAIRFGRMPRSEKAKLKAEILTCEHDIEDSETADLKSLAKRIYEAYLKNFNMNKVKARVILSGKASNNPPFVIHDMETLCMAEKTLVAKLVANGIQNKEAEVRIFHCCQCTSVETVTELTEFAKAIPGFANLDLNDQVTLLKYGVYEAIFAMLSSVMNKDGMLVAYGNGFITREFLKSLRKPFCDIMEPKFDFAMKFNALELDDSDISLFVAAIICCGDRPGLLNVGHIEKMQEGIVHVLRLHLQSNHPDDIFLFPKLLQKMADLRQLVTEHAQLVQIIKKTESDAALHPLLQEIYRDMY

[2] = molecular target: T2, Peroxisome proliferator-activated receptor delta (Homo sapiens, UniProt Q03181)
T2 sequence (Q03181 whole entry): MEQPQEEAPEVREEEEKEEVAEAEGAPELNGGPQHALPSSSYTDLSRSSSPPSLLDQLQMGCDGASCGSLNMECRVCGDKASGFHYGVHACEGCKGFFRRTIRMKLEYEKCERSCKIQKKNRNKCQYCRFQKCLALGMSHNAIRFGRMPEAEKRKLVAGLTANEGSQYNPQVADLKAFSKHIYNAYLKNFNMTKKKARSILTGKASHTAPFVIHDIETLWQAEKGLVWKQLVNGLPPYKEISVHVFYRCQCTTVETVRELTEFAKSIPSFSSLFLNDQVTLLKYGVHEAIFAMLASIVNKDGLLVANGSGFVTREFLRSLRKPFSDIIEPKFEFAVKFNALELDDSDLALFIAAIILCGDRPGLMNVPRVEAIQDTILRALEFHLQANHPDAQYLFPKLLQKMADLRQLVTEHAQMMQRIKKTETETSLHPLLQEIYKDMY

[3] = molecular target: T2, Peroxisome proliferator-activated receptor delta; assay type: functional, cell-based, HepG2

Row | SMILES | IC50 [1] [nM] | IC50 [2] [nM] | EC50 [3] [nM]
1 | Cc1nc(-c2ccc(C(F)(F)F)cc2)sc1COc1ccc2c(CC(=O)O)coc2c1 | 679 | 14 | 243
2 | O=C(O)Cc1coc2cc(OCc3ccc(COc4ccc(C(F)(F)F)cc4)cc3)ccc12 | 2380 | 81 | 3440
3 | Cc1cc(OCc2cc(-c3ccc(C(F)(F)F)cc3)on2)cc2scc(CC(=O)O)c12 | 1470 | 37 | 561
4 | O=C(O)Cc1csc2cc(OCc3cc(-c4ccc(C(F)(F)F)cc4)on3)cc(Cl)c12 | 1350 | 97 | 2360
5 | Cc1nc(C(F)(F)F)sc1COc1ccc2c(ccn2CC(=O)O)c1 | 550 | 6.8 | 223
6 | Cc1nc(-c2ccc(C(F)(F)F)cc2)sc1COc1cc(Cl)c2c(CC(=O)O)csc2c1 | 1040 | 58 | 227
7 | Cc1nc(C(F)(F)F)sc1CSc1ccc2c(ccn2CC(=O)O)c1 | 172 | 2.8 | 4
8 | O=C(O)Cc1csc2cc(OCc3ccccc3COc3ccc(C(F)(F)F)cc3)ccc12 | 7860 | 244 | 2230
9 | O=C(O)Cc1csc2cc(OCc3cccc(COc4ccc(C(F)(F)F)cc4)c3)ccc12 | 963 | – | –
10 | O=C(O)Cc1csc2cc(OCc3cc(-c4ccc(C(F)(F)F)cc4)on3)ccc12 | 261 | 11 | 305
11 | O=C(O)Cn1ccc2cc(OCc3ccc(Oc4ccc(C(F)(F)F)cc4)cc3)ccc21 | 562 | 91 | 2810
12 | O=C(O)Cc1csc2cc(OCc3ccc(COc4ccc(C(F)(F)F)cc4)cc3)ccc12 | 229 | – | –
13 | O=C(O)Cc1coc2cc(OCc3cc(-c4ccc(Cl)cc4)on3)ccc12 | 2380 | 81 | 323
14 | Cc1cc2c(CC(=O)O)csc2cc1OCc1cc(-c2ccc(Cl)cc2)on1 | 5810 | 37 | 656
15 | O=C(O)Cc1coc2cc(OCc3cccc(COc4ccc(C(F)(F)F)cc4)c3)ccc12 | 2500 | – | –
16 | Cc1cc2c(CC(=O)O)csc2cc1OCc1ccccc1COc1ccc(C(F)(F)F)cc1 | 4680 | – | –
17 | O=C(O)Cc1csc2cc(OCc3cc(-c4ccc(Cl)cc4)on3)ccc12 | 3820 | 7.7 | 226
18 | Cc1cc2c(CC(=O)O)csc2cc1OCc1sc(-c2ccc(C(F)(F)F)cc2)nc1C | 683 | 237 | –
19 | O=C(O)Cc1coc2cc(OCc3ccccc3COc3ccc(C(F)(F)F)cc3)ccc12 | > 10000 | 662 | 3120
20 | O=C(O)Cn1ccc2cc(OCc3cccc(COc4ccc(C(F)(F)F)cc4)c3)ccc21 | 179 | 13 | 254
21 | Cc1nc(-c2ccc(C(F)(F)F)cc2)sc1COc1ccc2c(CC(=O)O)csc2c1 | 482 | – | –
22 | Cc1cc(OCc2cc(-c3ccc(Cl)cc3)on2)cc2scc(CC(=O)O)c12 | 311 | 23 | 638
23 | O=C(O)Cn1ccc2cc(OCc3cc(-c4ccc(C(F)(F)F)cc4)on3)ccc21 | 835 | 31 | 1390
24 | O=C(O)Cc1coc2cc(OCc3cc(-c4ccc(C(F)(F)F)cc4)on3)ccc12 | 1420 | 25 | 1610
25 | O=C(O)Cc1csc2cc(OCc3cc(-c4ccc(Cl)cc4)on3)cc(Cl)c12 | 3840 | 375 | 6360
26 | O=C(O)Cn1ccc2cc(OCc3ccccc3COc3ccc(C(F)(F)F)cc3)ccc21 | > 10000 | 734 | 3080
